Among the test systems are T-47D breast; MDA-MB-231 breast; NCI/ADR-RES ovarian; DU-145 prostate; PC-3 prostate; MDA-MB-435; HS 578T breast; DMS 273 small cell lung; DLD-1 colon.
Common to all, as to assay: inhibition of tumour cell growth, NCI panel, 48 h

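Where inhibition never reached the appropriate level, the endpoint shown equals the highest concentration tested. Otherwise, values were interpolated linearly from a five-concentration, 48-hour dose response in 96-well plates. GI50: concentration for 50% inhibition of growth. TGI marks complete inhibition of growth.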 A value given as a limit tells only on which side of the number the result lay.

`C[C@@H]1CC[C@H]2C(CN3CCN(CC4=C(C(F)(F)F)O[C@@H]5O[C@@]6(C)CC[C@H]7[C@H](C)CC[C@@H]4[C@@]57OO6)CC3)=C(C(F)(F)F)O[C@@H]3O[C@@]4(C)CC[C@@H]1[C@]32OO4`: the GI50 is 0.458 µM in the assay with T-47D breast; 7.85 µM in the assay on MDA-MB-231 breast; over 100 µM with NCI/ADR-RES ovarian; 16.9 µM in the assay with DU-145 prostate; 0.351 µM with PC-3 prostate; 1.09 µM with MDA-MB-435. For the same molecule, the GI50 in the assay on HS 578T breast is 1.75 µM. Also, the TGI in the assay on T-47D breast was over 100 µM; in the assay on MDA-MB-231 breast, over 27.7 µM; with NCI/ADR-RES ovarian it was over 100 µM; in the assay with DU-145 prostate it was over 100 µM; with PC-3 prostate, over 100 µM; with MDA-MB-435, over 100 µM. The same molecule displayed a TGI with HS 578T breast of over 47.3 µM.

On to `Fc1ccc(-c2c(-c3ccncc3)n(CCN3CCOCC3)c3cccnc23)cc1`, for which the GI50 in the assay on T-47D breast, in the assay with MDA-MB-231 breast, with NCI/ADR-RES ovarian, in the assay on DU-145 prostate, in the assay with PC-3 prostate and in the assay on MDA-MB-435 was over 25 µM each time. For the same molecule, in the assay with HS 578T breast, the GI50 is over 25 µM. Also, the TGI with T-47D breast, in the assay with MDA-MB-231 breast, with NCI/ADR-RES ovarian, in the assay on DU-145 prostate, with PC-3 prostate and with MDA-MB-435 was over 25 µM throughout. Further, the TGI with HS 578T breast is over 25 µM.

Regarding `O=C(O)CNS(=O)(=O)c1ccc(NC(=O)c2cccc([N+](=O)[O-])c2)cc1`, the TGI with DMS 273 small cell lung and in the assay with DLD-1 colon was over 100 µM throughout.

Regarding `C1CCN2CC34CC(CC5CCCN(C6CCCC3N6)C54)C2C1` (stereo not drawn), the TGI with T-47D breast, in the assay on MDA-MB-231 breast, in the assay with NCI/ADR-RES ovarian, in the assay on DU-145 prostate, in the assay with PC-3 prostate and with MDA-MB-435 was over 100 µM each time. Also, the TGI in the assay on HS 578T breast is over 100 µM.

Consider `COCCOCCOCCOCCOc1ccc2c(c1)C(=O)c1nc3ncccc3c(=O)n1-2`, for which the GI50 in the assay with T-47D breast is 3.03 µM; with MDA-MB-231 breast it was 2.93 µM; in the assay on NCI/ADR-RES ovarian it was 2.09 µM; in the assay on DU-145 prostate, 0.54 µM; in the assay on PC-3 prostate it was 1.67 µM; with MDA-MB-435 it was 0.188 µM. Also, the GI50 in the assay on HS 578T breast is 1.09 µM. The TGI in the assay with T-47D breast amounted to 9.04 µM; with MDA-MB-231 breast, 52 µM; with NCI/ADR-RES ovarian, 6.41 µM; in the assay on DU-145 prostate, 1.79 µM; in the assay on PC-3 prostate, 16.5 µM; with MDA-MB-435, 0.364 µM. This molecule had a TGI with HS 578T breast of 4.02 µM.

As to `CC(C)=CCC[C@](C)(O)[C@H]1CC[C@]2(C)[C@@H]1CC[C@@H]1[C@@]3(C)CC[C@H](OC(=O)CCC(=O)O)C(C)(C)[C@@H]3CC[C@]12C`, the GI50 in the assay on T-47D breast was 19.4 µM; in the assay with MDA-MB-231 breast, 30.1 µM; with NCI/ADR-RES ovarian it was 30.4 µM; with DU-145 prostate it was 27.5 µM; with PC-3 prostate, 8.79 µM; in the assay with MDA-MB-435 it was 29.3 µM. Moreover, the GI50 with HS 578T breast was 45.8 µM. The TGI in the assay on T-47D breast is over 100 µM; in the assay with MDA-MB-231 breast it was 87.5 µM; in the assay with NCI/ADR-RES ovarian it was over 100 µM; with DU-145 prostate it was over 100 µM; in the assay on PC-3 prostate it was 28.4 µM; with MDA-MB-435, over 100 µM. This molecule came in with a TGI in the assay on HS 578T breast of over 100 µM.

Consider `CC(C)(C)c1ccc(C(O)(c2ccc(C(C)(C)C)cc2)c2ccc(C(C)(C)C)cc2)cc1`, for which the TGI with T-47D breast, in the assay on MDA-MB-231 breast, with NCI/ADR-RES ovarian, in the assay on DU-145 prostate, in the assay with PC-3 prostate and in the assay with MDA-MB-435 was over 100 µM throughout. Further, in the assay with HS 578T breast, the TGI was over 100 µM.

In the case of `COc1cc(C=NCC(=O)CSC(c2ccccc2)c2ccccc2)cc(OC)c1OC`, the GI50 in the assay with T-47D breast was 4.48 µM; in the assay with MDA-MB-231 breast it was 18.1 µM; in the assay with NCI/ADR-RES ovarian, 7.36 µM; in the assay on DU-145 prostate it was 40.8 µM; in the assay with PC-3 prostate it was 9.09 µM; in the assay with MDA-MB-435 it was 25.1 µM. For the same molecule, the GI50 with HS 578T breast is 19 µM. The TGI in the assay with T-47D breast was 53.7 µM; with MDA-MB-231 breast it was over 100 µM; in the assay with NCI/ADR-RES ovarian, over 100 µM; in the assay with DU-145 prostate, over 100 µM; in the assay on PC-3 prostate, over 100 µM; with MDA-MB-435, 80.2 µM. The molecule further returned a TGI in the assay on HS 578T breast of 59.4 µM.

Regarding `Cc1cc(I)cc(CN(C)CCCCN2CCCC2)c1O`, the GI50 with T-47D breast was 15.7 µM; in the assay on MDA-MB-231 breast it was 18.8 µM; with NCI/ADR-RES ovarian, 35.2 µM; in the assay with DU-145 prostate, 35.8 µM; in the assay on PC-3 prostate it was 24.8 µM; with MDA-MB-435, 11.1 µM. Besides, the GI50 in the assay with HS 578T breast was 11.5 µM. For the same molecule, the TGI with T-47D breast was 40.4 µM; in the assay on MDA-MB-231 breast it was 51.1 µM; with NCI/ADR-RES ovarian, over 100 µM; in the assay with DU-145 prostate, over 100 µM; in the assay with PC-3 prostate, 83.6 µM; in the assay with MDA-MB-435, 27.9 µM. Also, the TGI in the assay on HS 578T breast came out at 32.8 µM.

Consider `CCc1ccc(/C=C2/SC(=S)NC2=O)cc1`, for which the GI50 was 23.5 µM in the assay on T-47D breast; 18.9 µM in the assay with MDA-MB-231 breast; 25.3 µM in the assay on NCI/ADR-RES ovarian; 38.6 µM with DU-145 prostate; 23.3 µM in the assay on PC-3 prostate; 27.5 µM with MDA-MB-435. In addition, in the assay on HS 578T breast, the GI50 was 16.3 µM. Further, the TGI with T-47D breast was 89.2 µM; in the assay with MDA-MB-231 breast it was 46.7 µM; in the assay on NCI/ADR-RES ovarian it was 89.4 µM; in the assay on DU-145 prostate, over 100 µM; with PC-3 prostate, over 100 µM; in the assay on MDA-MB-435, over 100 µM. Besides, the TGI in the assay with HS 578T breast came to 70.6 µM.

Regarding `O=C(O)CCN1C(=O)/C(=C/C(Cl)=C/c2ccccc2)SC1=S`, the GI50 in the assay on T-47D breast is 1.71 µM; in the assay on MDA-MB-231 breast, 3.38 µM; in the assay with NCI/ADR-RES ovarian it was 2.6 µM; in the assay on DU-145 prostate it was 3.14 µM; with PC-3 prostate it was 2.87 µM; with MDA-MB-435 it was 2.95 µM. The GI50 with HS 578T breast was 3.18 µM. Besides, the TGI came to 6.52 µM with T-47D breast; 11 µM in the assay on MDA-MB-231 breast; 9.59 µM in the assay on NCI/ADR-RES ovarian; 12.4 µM in the assay with DU-145 prostate; 11.4 µM with PC-3 prostate; 11.6 µM in the assay on MDA-MB-435. The TGI in the assay with HS 578T breast worked out at 17.3 µM.

The record behind these values is PubChem BioAssay (NCI).
